Experiment in all cases: DTP human tumour cell line panel, 48 h
Assay [1] has as its system SW-620 colon.
For assay [2], the system named is TK-10 renal.
For assay [3], the system named is SK-MEL-28 melanoma.
Assay [4] has as its system 786-0 renal.
In assay [5] the test system is M14 melanoma.
The test system of assay [6] is A549 NSCLC.
The subject of assay [7] is OVCAR-4 ovarian.
Assay [8] concerns CAKI-1 renal.
Assay [9] concerns MALME-3M melanoma.
Assay [10] concerns DU-145 prostate.

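Cultured in 96-well plates, cells were exposed to test compound for 48 hours across five concentrations. The concentration for 50% growth inhibition is given as GI50. At the TGI there is no net growth.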

As usually defined, the TGI is the concentration giving total growth inhibition. The GI50 is the concentration giving 50% growth inhibition.

Consider `CSC(=S)N/N=C/c1nccc2ccccc12`, for which the TGI in assay [1] is 18.8 µM; in [2] it was 62.9 µM; in assay [3], greater than 79.8 µM; in [4] it was 12.6 µM; in assay [5], 4.87 µM; in assay [6], 9.87 µM. The TGI in assay [7] is greater than 100 µM; in [8], 14.2 µM; in assay [9], 32.7 µM.

For `Nc1ccc(/C=C/C(=O)NCc2cc3cc(-c4ccc(C(=O)N5CCC(F)(F)CC5)cc4)cc(-c4ccc(F)cc4)c3o2)cn1`, the concentration for 50% growth inhibition (GI50) is 0.0571 µM in [1]; greater than 100 µM in assay [2]; greater than 100 µM in [3]; 40.3 µM in [4]; 0.459 µM in [5]; greater than 100 µM in [6]. Besides, the GI50 in [7] is greater than 71.5 µM; in assay [10] it was 4.15 µM; in [9], greater than 100 µM. The TGI is greater than 100 µM in [1]; greater than 100 µM in assay [2]; greater than 100 µM in assay [3]; greater than 100 µM in [4]; greater than 55.8 µM in [5]; greater than 100 µM in assay [6]. The TGI in [7], in assay [10] and in [9] was greater than 100 µM throughout.

Turning to `O=S(=O)(NCCCNc1nccc(-c2c(-c3ccc(F)cc3)nc3sccn23)n1)c1ccc2ccccc2c1`, the GI50 in assay [1] was 6.4 µM; in assay [2], 7.54 µM; in [3] it was greater than 100 µM; in assay [4], 6.19 µM; in assay [5] it was 6.53 µM; in [6] it was 4.43 µM. Moreover, the GI50 was 5.99 µM in assay [7], 5.53 µM in assay [10] and 5.47 µM in assay [8]. The concentration for total growth inhibition (TGI) in assay [1], in assay [2], in assay [3], in [4], in assay [5] and in assay [6] was greater than 100 µM in each case. For the same molecule, the TGI in [7], in [10] and in assay [8] was greater than 100 µM each time.

For `C/C(=N/NC(=O)C[N+](C)(C)C)C(CN(C)C)C(=O)Nc1ccccc1` (stereo not drawn), the TGI in assay [1], in [2], in [3], in assay [4], in assay [5] and in [6] was greater than 100 µM each time. The TGI in assay [7], in assay [8] and in [9] was greater than 100 µM in each case.

On to `O=C(O)c1ccc(C2C(=O)N[C@@H]3CCC[C@H]23)cc1` (stereo partly drawn), for which the TGI in assay [1], in assay [2], in assay [3], in [4], in assay [5] and in assay [6] was greater than 100 µM in each case. The concentration for total growth inhibition (TGI) in [7], in assay [8] and in assay [9] was greater than 100 µM throughout.

As to `COc1cnc2c(c1)C(=O)c1c-2n(CCCN2CCN(C)CC2)c(=O)c2cc([N+](=O)[O-])ccc12`, the GI50 was 0.0227 µM in assay [1]; 0.237 µM in [2]; 1.64 µM in assay [4]; 0.131 µM in assay [5]; 0.128 µM in assay [6]; 1.46 µM in assay [7]. The GI50 in assay [10] was 0.22 µM; in assay [8], 1.34 µM. Further, the TGI in assay [1] was 1.38 µM; in assay [2], 0.715 µM; in [4] it was 3.13 µM; in assay [5] it was 0.37 µM; in assay [6], 0.337 µM; in [7], 3.31 µM. The total growth inhibition concentration (TGI) was 0.587 µM in [10] and 2.8 µM in assay [8].

As to `Cc1c(C(=O)O)oc2ccc([N+](=O)[O-])cc12`, the TGI in [1], in [2], in [3], in [4], in assay [5] and in assay [6] was greater than 100 µM in each case. Besides, the TGI in [7], in assay [8] and in assay [9] was greater than 100 µM throughout.

Take `CC(=O)OCC1OC(N2C(=O)C(=O)c3ccccc32)C(OC(C)=O)C(OC(C)=O)C1OC(C)=O` (stereo not drawn): the TGI in assay [1], in assay [2], in [3], in assay [4], in assay [5] and in assay [6] was greater than 100 µM each time. Moreover, the TGI in assay [7], in [8] and in assay [9] was greater than 100 µM throughout.

Consider `O=C(N/N=C/c1ccccc1O)c1ccccc1`, for which the GI50 was 2.84 µM in assay [1]; 4.11 µM in assay [2]; 6.69 µM in [3]; 0.339 µM in assay [4]; 1.75 µM in [5]; 3.9 µM in [6]. Besides, the values for the GI50 in assay [7], in assay [10] and in assay [9] were 0.725 µM, 3.27 µM and 4.26 µM, respectively. Also, the total growth inhibition concentration (TGI) in assay [1] is greater than 100 µM; in assay [2], greater than 100 µM; in [3], greater than 100 µM; in assay [4], 1.83 µM; in [5], 15.3 µM; in [6] it was greater than 100 µM. Also, the concentration for total growth inhibition (TGI) in assay [7] was greater than 100 µM; in [10] it was greater than 100 µM; in assay [9] it was 46.7 µM.

`C=C1C(=O)O[C@H]2[C@H]1CC/C(C=Nc1c(N)cc(C(F)(F)F)cc1Br)=C\CC[C@@]1(C)O[C@@H]21`: the GI50 was 1.53 µM in assay [1]; 1.98 µM in assay [2]; 1.88 µM in assay [3]; 2.14 µM in assay [4]; 1.71 µM in [5]; 2.03 µM in assay [6]. For the same molecule, the GI50 in assay [7] is 1.57 µM; in assay [10], 1.48 µM; in assay [9], 1.71 µM. The total growth inhibition concentration (TGI) in [1] was 3.71 µM; in [2] it was 3.49 µM; in assay [3], 3.66 µM; in assay [4] it was 3.91 µM; in assay [5], 3.55 µM; in assay [6], 5.11 µM. Moreover, the TGI in assay [7] amounted to 3.45 µM; in assay [10] it was 2.95 µM; in assay [9] it was 3.34 µM.

The record behind these values is PubChem BioAssay (NCI).
